# Reference: patent US8703790B2, “Bis [O-(14-benzoylaconine-8-yl)] esters” (priority 2008, dated 2014)
# Columns and labels:
# A549 = settings: A549, NCI data base values; cited from earlier work
# HCT-15 = settings: HCT-15, NCI data base values; cited from earlier work
# MCF-7 = settings: MCF-7, NCI data base values; cited from earlier work
# A549 (lung cancer) = experiment: In vitro cytotoxicity test (MTT) against human tumour cell line A549; format: cell-based; settings: A549, 24 h contact, 48 h re-growth
# Procedure: (§1) Human tumour cell lines A549 (lung cancer), HCT-15 (colon cancer) and MCF-7 (breast cancer) have been obtained from the Developmental Therapeutics Program of the National Cancer Institute (Rockville, Md., USA). Cells were routinely grown with RPMI 1640 medium supplemented with 10% foetal calf serum, both obtained from Biochrom AG (Berlin, Germany). They were grown on Petri dishes (Nunc, Denmark) at 37° C. in a humidified atmosphere containing 5% CO2. Cells were replicated every 4 days and the medium changed once in-between.
# (§2) Cytotoxicity has been evaluated on exponentially growing cells grown for 24 h in presence of the compounds to be tested. Briefly, 4000 cells were seeded in 96-well plates with 200 μL of complete medium; 24 hours later the medium was supplemented with a series of different concentrations of compounds and the contact maintained for 24 h. Compounds were dissolved in pure water and sterilised using polycarbonate membrane filters of 0.22 μm (Millipore, Molsheim, France). The cells were then allowed to re-grow for 48 hours; viable and metabolically active cells were quantitatively estimated by coloration with the MTT dye (1-(4,5-dimethylthyazol-2-yl)-3,5-diphenylformazan), Sigma-Aldrich Chimie, Saint-Quentin-Fallavier, France). The amount of substance allowing a 50% decrease in cell numbers is indicative of the cytotoxicity and represents the IC50 of compound.
# HCT-15 (colon cancer) = experiment: In vitro cytotoxicity test (MTT) against human tumour cell line HCT-15; format: cell-based; settings: HCT-15, 24 h contact, 48 h re-growth
# Procedure: as §1, §2
# MCF-7 (breast cancer) = experiment: In vitro cytotoxicity test (MTT) against human tumour cell line MCF-7; format: cell-based; settings: MCF-7, 24 h contact, 48 h re-growth
# Procedure: as §1, §2
# [1] = tested on: HTC-15 (colon cancer), A549 (lung cancer), MCF-7 (breast cancer); settings: HTC-15, A549, MCF-7; publication A. Chodoeva et al.; read-out: IC50 in these three cell lines; cited from earlier work
# [2] = background statement; cited from earlier work
# mouse tumours = mouse tumours in vivo; cited from earlier work
# [3] = tested on: mitochondrial oxidoreductases; settings: tumour cells; Picardo et al. 1985; cited from earlier work
SMILES,IC50 (A549),IC50 (HCT-15),IC50 (MCF-7),IC50 (A549 (lung cancer)),IC50 (HCT-15 (colon cancer)),IC50 (MCF-7 (breast cancer)),other results
COc1cc([C@@H]2c3cc4c(cc3[C@@H](O[C@@H]3O[C@@H]5CO[C@@H](C)O[C@H]5[C@H](O)[C@H]3O)[C@H]3COC(=O)[C@H]23)OCO4)cc(OC)c1O [etoposide],3.61 µM,17.6 µM,5.73 µM,,,,
"O=c1[nH]cc(F)c(=O)[nH]1 [5-FU, fluorouracil]",2.11 µM,5.69 µM,1.75 µM,,,,
"CCN1CC2(COC)C(O)CC(OC)C34C5CC6(O)C(OC)C(O)C(OC(=O)CCCCCCCC(=O)O)(C5C6OC(=O)c5ccccc5)C(C(OC)C23)C14 (stereo not shown) [8-O-azeloyl-14-benzoylaconine, reference compound]",,,,16.8 µM,19.4 µM,10.3 µM,IC50 [1]: 10 to 18 µM
N.N.[Cl][Pt][Cl] [cisplatin],3.08 µM,7.21 µM,3.01 µM,,,,
"CCN1C[C@]2(COC)[C@H](O)C[C@H](OC)[C@]34C1[C@H]([C@H](OC)[C@H]23)[C@]1(OC(=O)CCCCCCCC(=O)O[C@]23[C@H]5[C@@H](OC(=O)c6ccccc6)[C@](O)(C[C@H]5[C@@]56C7[C@@H]2[C@H](OC)[C@@H]5[C@](COC)(CN7CC)[C@H](O)C[C@@H]6OC)[C@@H](OC)[C@@H]3O)[C@H]2[C@@H](OC(=O)c3ccccc3)[C@](O)(C[C@H]24)[C@@H](OC)[C@@H]1O [ADD, bis[O-(14-benzoylaconine-8-yl)]-azelate]",,,,19.1 µM,22 µM,15.5 µM,
CCN1C[C@]2(COC)[C@H](O)C[C@H](OC)[C@]34C1[C@H]([C@H](OC)[C@H]23)[C@]1(O)[C@H]2[C@@H](O)[C@](O)(C[C@H]24)[C@@H](OC)[C@@H]1O [Aconine],,,,,,,antiproliferative activity [2]: devoid of antiproliferative activity
"CCN1C[C@]2(COC)[C@H](O)C[C@H](OC)[C@]34C1[C@H]([C@H](OC)[C@H]23)[C@]1(OC(=O)CCCCCC(=O)O[C@]23[C@H]5[C@@H](OC(=O)c6ccccc6)[C@](O)(C[C@H]5[C@@]56C7[C@@H]2[C@H](OC)[C@@H]5[C@](COC)(CN7CC)[C@H](O)C[C@@H]6OC)[C@@H](OC)[C@@H]3O)[C@H]2[C@@H](OC(=O)c3ccccc3)[C@](O)(C[C@H]24)[C@@H](OC)[C@@H]1O [PDD, bis[O-(14-benzoylaconine-8-yl)]-pimelate]",,,,3.76 µM,3.76 µM,7.5 µM,
N[C@@H](Cc1ccc(N(CCCl)CCCl)cc1)C(=O)O [mephalan],28.7 µM,39.4 µM,11.1 µM,,,,
"O=C(O)CCCCCCCC(=O)O [Azelaic acid, azelaic acid]",,,,,,,antitumour activity (mouse tumours): total absence of antitumour activity; inhibition of mitochondrial oxidoreductases [3]: inhibitor of mitochondrial oxidoreductases
